The assay deals with T1, Bos d 5 (bovine beta-lactoglobulin) (Bos taurus, UniProt P02754).
T1 construct: gene LGB; commercially available bovine beta-lactoglobulin (L0130, Sigma); globular protein of 162 amino acid residues
The experiment in a line: intrinsic tryptophan fluorescence quenching (pH […] °C), supported by ANS displacement assay. Format: binding.

T1 sequence (P02754 17-178): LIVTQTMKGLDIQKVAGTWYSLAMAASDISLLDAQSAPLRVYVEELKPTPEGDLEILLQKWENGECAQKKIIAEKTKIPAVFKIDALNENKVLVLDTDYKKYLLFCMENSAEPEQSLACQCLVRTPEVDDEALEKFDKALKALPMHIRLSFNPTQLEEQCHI

Turning to `CC1=C(/C=C/C(C)=C/C=C/C(C)=C/C(=O)O)C(C)(C)CCC1` [RA, all trans-retinoic acid], the dissociation constant (Kd) (in general, the equilibrium constant for the complex coming apart) turned out to be 6.1 µM.
